In US20250388602A1 (Genase Therapeutics B.V., priority 2022, published 2025) one finds IC50 data, which are given here for 13 molecules.

Read-outs that look alike come from different tables or passages of the source.

In experiment [1] the test system is MOLM-13 cells. Description: MOLM-13 cell viability (Assay B), Cell Titer-Glo. It counts as cell-based. Conditions: Homo sapiens, read-out: IC50 MOLM13 inhibition activity. How it is done:
MOLM-13 cells (an acute myeloid leukemia cell line) were plated in RPMI supplied with 10% FBS and 1% Pen/Strep in 384-well plates at 1,000 cells per well on day 0. On day 1, treatment of the cells with compound (concentration range 10E-5 and 6E-12 M) was initiated in the presence or absence of 100 μM uridine. After 72 hours incubation of the cells with or without test compound, the number of viable cells per well was assessed by Cell Titer-Glo Luminescent Cell Viability Assay (Promega, Madison, WI, USA). […] Each condition was tested in duplicate and the potency of test compounds was determined from two independent experiments.
(ATP-based viability assays read luminescence as a measure of living cells.)

Experiment [2] deals with recombinant human DHODH (Homo sapiens (Human), UniProt Q02127). The experiment is described as follows: DHODH enzyme assay (Assay A), DCIP absorbance. The class given is biochemical. On the procedure:
Inhibition of human dihydroorotate dehydrogenase (DHODH) by example compounds as described herein was determined using one of two assays as described below.
DHODH enzyme assays were performed with 6 nM recombinant human DHODH (purified essentially as described by Walse et al., Biochemistry, 47, 8929-8936 (2008)). The reaction mixture consisted of 1 mM DL-dihydroorotic acid (#D7003, Sigma-Aldrich), 100 μM 3,4-dimethoxy-5-methyl-p-benzoquinone (#D9150, Sigma-Aldrich), and 100 μM 2,6-dichlorophenolindophenol sodium salt (DCIP) (#D1878, Sigma-Aldrich) in enzyme buffer (50 mM Tris-HCl pH 8.0, 0.1% Triton X-100, 150 mM KCl). A stock solution of 20 mM DCIP was prepared in enzyme buffer and filtered through Whatman paper just before use. Reactions were performed in a total volume of 100 μL, consisting of 1 μL of compound, 49 μL of enzyme and 50 μL of reaction mixture. Loss in absorbance by chromogen DCIP was measured at 595 nm following a 70 minute incubation at 32° C.

[3] abbreviates: MOLM-13, 72 hours, bins ≥10 nM-<100 nM and <10 nM.
Setting [4] is: bin ≥1 μM-<10 μM, read-out: IC50 DHODH inhibition activity.
The mark [5] stands for this setting: bins ≥10 nM-<100 nM and <10 nM, read-out: IC50 DHODH inhibition activity.

recombinant human DHODH, sequence (Q02127 whole entry): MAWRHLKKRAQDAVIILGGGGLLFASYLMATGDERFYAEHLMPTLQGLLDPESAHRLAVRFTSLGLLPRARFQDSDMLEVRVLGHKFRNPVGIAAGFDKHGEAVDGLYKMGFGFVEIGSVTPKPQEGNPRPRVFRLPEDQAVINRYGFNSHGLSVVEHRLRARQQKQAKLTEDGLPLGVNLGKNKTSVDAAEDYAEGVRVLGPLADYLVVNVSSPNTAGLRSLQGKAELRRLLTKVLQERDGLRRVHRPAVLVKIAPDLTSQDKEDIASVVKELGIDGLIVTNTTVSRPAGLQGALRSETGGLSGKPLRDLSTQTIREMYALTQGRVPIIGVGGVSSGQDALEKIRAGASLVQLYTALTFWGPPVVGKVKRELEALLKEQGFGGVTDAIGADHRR

As usually defined, the IC50 is the concentration that gives 50% inhibition. `COc1cccc(-n2ncc3c2COC[C@H]3NC(=O)c2cc(C)c(C)cn2)c1Cl`: the IC50 in experiment [1] (setting [3]) was in the range of 0.01 to 0.1 µM.

For `O=C(N[C@H]1COCc2c1cnn2-c1ccccc1F)c1ncn2c1CCCC2` (single isomer, unassigned) [Ex-2], the IC50 in experiment [2] (setting [4]) is 1 to 10 µM.

With `O=C(N[C@H]1COCc2c1cnn2-c1ccccc1F)c1ncc2n1CCCC2` (single isomer, unassigned) [Ex-5], the 50% inhibitory concentration (IC50) in experiment [2] (setting [4]) fell in the range of 1 to 10 µM.

For `O=C(N[C@H]1COCc2c1cnn2-c1c(Cl)cccc1Cl)c1ncn2c1CCCC2` (single isomer, unassigned) [Ex-12], the IC50 in experiment [1] (setting [3]) lay in the range of 0.01 to 0.1 µM.

On to `Cc1cccc(-n2ncc3c2COC[C@H]3NC(=O)c2ncn3c2CCCC3)c1Cl` [Ex-14, (S)—N-(1-(2-chloro-3-methylphenyl)-1,4,5,7-tetrahydropyrano[3,4-c]pyrazol-4-yl)-5,6,7,8-tetrahydroimidazo[1,5-a]pyridine-1-carboxamide], for which the 50% inhibitory concentration (IC50) in experiment [2] (setting [5]) was less than 0.01 µM; in experiment [1] (MOLM-13, 72 h), less than 0.01 µM.

`CCc1c(C(=O)N[C@@H]2COCc3c2cnn3-c2cccc(C)c2Cl)ncn1C` [Ex-15, (S)—N-(1-(2-chloro-3-methylphenyl)-1,4,5,7-tetrahydropyrano[3,4-c]pyrazol-4-yl)-5-ethyl-1-methyl-1H-imidazole-4-carboxamide]: the IC50 in experiment [2] (setting [5]) and in experiment [1] (setting [3]) was less than 0.01 µM each time.

As for `Cc1cccc(-n2ncc3c2COC[C@H]3NC(=O)c2ncc3n2CCCC3)c1Cl` [Ex-16, (S)—N-(1-(2-chloro-3-methylphenyl)-1,4,5,7-tetrahydropyrano[3,4-c]pyrazol-4-yl)-5,6,7,8-tetrahydroimidazo[1,5-a]pyridine-3-carboxamide], the IC50 in experiment [2] (setting [5]) and in experiment [1] (setting [3]) was less than 0.01 µM in each case.

Regarding `Cc1cnc(C(=O)N[C@@H]2COCc3c2cnn3-c2c(C)cccc2Cl)cc1C` [Ex-40, (S)—N-(1-(2-chloro-6-methylphenyl)-1,4,5,7-tetrahydropyrano[3,4-c]pyrazol-4-yl)-4,5-dimethylpicolinamide], in experiment [1] (setting [3]), the IC50 fell in the range of 0.01 to 0.1 µM.

Turning to `CS(=O)(=O)c1cccc(-n2ncc3c2COC[C@H]3NC(=O)c2ncn3c2CCCC3)c1` [Ex-49, (S)—N-(1-(3-(methylsulfonyl)phenyl)-1,4,5,7-tetrahydropyrano[3,4-c]pyrazol-4-yl)-5,6,7,8-tetrahydroimidazo[1,5-a]pyridine-1-carboxamide], the IC50 in experiment [2] (setting [4]) was 1 to 10 µM.

`CN(C)CCOc1cccc(-n2ncc3c2COC[C@H]3NC(=O)c2ncn3c2CCCC3)c1Cl` [Ex-63, (S)—N-(1-(2-chloro-3-(2-(dimethylamino)ethoxy)phenyl)-1,4,5,7-tetrahydropyrano[3,4-c]pyrazol-4-yl)-5,6,7,8-tetrahydroimidazo[1,5-a]pyridine-1-carboxamide]: in experiment [2], the IC50 was 0.01 to 0.1 µM.

As for `CNC(=O)COc1cccc(-n2ncc3c2COC[C@H]3NC(=O)c2ncn3c2CCCC3)c1Cl` [Ex-65, (S)—N-(1-(2-chloro-3-(2-(methylamino)-2-oxoethoxy)phenyl)-1,4,5,7-tetrahydropyrano[3,4-c]pyrazol-4-yl)-5,6,7,8-tetrahydroimidazo[1,5-a]pyridine-1-carboxamide], the IC50 in experiment [2] lay within 0.01 to 0.1 µM.

As to `CC(=O)NCCOc1cccc(-n2ncc3c2COC[C@H]3NC(=O)c2ncn3c2CCCC3)c1Cl` [Ex-66, (S)—N-(1-(3-(2-acetamidoethoxy)-2-chlorophenyl)-1,4,5,7-tetrahydropyrano[3,4-c]pyrazol-4-yl)-5,6,7,8-tetrahydroimidazo[1,5-a]pyridine-1-carboxamide], in experiment [2], the IC50 was in the range of 0.01 to 0.1 µM.

For the molecule `CN(C)C(=O)c1cccc(-n2ncc3c2COC[C@H]3NC(=O)c2ncn3c2CCCC3)c1Cl` [Ex-70, (S)—N-(1-(2-chloro-3-(dimethylcarbamoyl)phenyl)-1,4,5,7-tetrahydropyrano[3,4-c]pyrazol-4-yl)-5,6,7,8-tetrahydroimidazo[1,5-a]pyridine-1-carboxamide], the IC50 in experiment [1] (MOLM-13, 72 h) lay in the range of 0.01 to 0.1 µM.
